Laboratory results as given in the NIST ThermoML archive (doi:10.1021/je050159x).

How the values were obtained:
[1] = for mass density: 101.33 kPa, Liquid
[2] = xn = mol fraction of the nth substance listed

OCc1ccccc1 [benzenemethanol]
[1]
Settings	mass density [kg/m3]	surface tension liquid-gas [mN/m]
293.15 K	1045.2	39.05
298.15 K	1041.4	38.58
303.15 K	–	38.12
308.15 K	–	37.63
313.15 K	1029.8	37.16
318.15 K	–	36.63
323.15 K	–	36.18

OCc1ccccc1 [benzenemethanol] + C1CCCCC1
surface tension liquid-gas [mN/m], [2]
Settings	x2 = 0	x2 = 0.0068	x2 = 0.0079	x2 = 0.0107	x2 = 0.0202	x2 = 0.0312	x2 = 0.0409	x2 = 0.0655
293.15 K	39.05	37.88	37.73	37.48	37.07	36.53	35.88	34.14
298.15 K	38.58	37.43	37.39	37.15	36.68	36.25	35.66	34.04
303.15 K	38.12	37.06	36.93	36.74	36.32	35.98	35.41	33.94
308.15 K	37.63	36.66	36.54	36.38	35.92	35.73	35.22	33.82
313.15 K	37.16	36.29	36.12	35.99	35.58	35.47	34.96	33.72
318.15 K	36.63	35.84	35.74	35.66	35.24	35.22	34.77	33.61
323.15 K	36.18	35.5	35.32	35.25	34.86	34.96	34.53	33.5

OCc1ccccc1 [benzenemethanol] + CCCCCC
surface tension liquid-gas [mN/m], [2]
Settings	x2 = 0	x2 = 0.0068	x2 = 0.0085	x2 = 0.0198	x2 = 0.0215	x2 = 0.0264	x2 = 0.0493	x2 = 0.07
293.15 K	39.05	37.39	37.24	34.45	33.73	33.22	30.61	27.46
298.15 K	38.58	37.1	36.85	34.74	34.04	33.56	31.06	27.96
303.15 K	38.12	36.84	36.41	35.03	34.38	33.86	31.54	28.72
308.15 K	37.63	36.53	36.01	35.35	34.69	34.25	31.92	29.29
313.15 K	37.16	36.3	35.6	35.63	34.99	34.59	32.35	29.9

OCc1ccccc1 [benzenemethanol] + CCCCCCC
surface tension liquid-gas [mN/m], [2]
Settings	x2 = 0	x2 = 0.0065	x2 = 0.009	x2 = 0.0112	x2 = 0.0238	x2 = 0.0306	x2 = 0.0445	x2 = 0.067
293.15 K	39.05	37.77	37.07	–	33.61	32.37	28.84	26.09
298.15 K	38.58	37.47	36.87	34.69	33.83	32.58	29.16	26.47
303.15 K	38.12	37.1	36.62	35.02	34.05	32.82	29.43	26.89
308.15 K	37.63	36.78	36.41	35.28	34.27	33.04	29.68	27.27
313.15 K	37.16	36.49	36.16	35.53	34.48	33.24	30	27.7
318.15 K	36.63	36.18	35.95	35.83	34.7	33.46	30.3	28.08
323.15 K	36.18	35.92	35.74	36.11	34.95	33.68	30.61	28.46

OCc1ccccc1 [benzenemethanol] + CCCCCCCCC
surface tension liquid-gas [mN/m], [2]
Settings	x2 = 0	x2 = 0.0061	x2 = 0.008	x2 = 0.0116	x2 = 0.0204	x2 = 0.0329	x2 = 0.0408	x2 = 0.0668
293.15 K	39.05	36.83	36.33	35.34	32.52	30.44	28.73	26.66
298.15 K	38.58	36.4	35.95	35.13	32.31	30.23	28.52	26.56
303.15 K	38.12	35.85	35.52	34.59	32.02	30	28.22	26.38
308.15 K	37.63	35.51	35.21	34.33	31.83	29.85	28.03	26.28
313.15 K	37.16	35.03	34.84	33.98	31.61	29.62	27.82	26.19
318.15 K	36.63	34.61	34.5	33.67	31.41	29.44	27.67	26.12
323.15 K	36.18	34.25	34.16	33.32	31.22	29.25	27.46	26.02

C1CCCCC1 [cyclohexane]
[1]
Settings	mass density [kg/m3]	surface tension liquid-gas [mN/m]
293.15 K	778.6	25.06
298.15 K	773.9	24.45
303.15 K	–	23.87
308.15 K	–	23.21
313.15 K	759.6	22.71
318.15 K	–	22.05
323.15 K	–	21.45

C1CCCCC1 [cyclohexane] + OCc1ccccc1
[2], x1 = 1
Settings	surface tension liquid-gas [mN/m]
293.15 K	25.06
298.15 K	24.45
303.15 K	23.87
308.15 K	23.21
313.15 K	22.71
318.15 K	22.05
323.15 K	21.45

CCCCCCC [heptane]
[1]
Settings	mass density [kg/m3]	surface tension liquid-gas [mN/m]
293.15 K	696	20.05
298.15 K	691.9	19.54
303.15 K	–	19.1
308.15 K	–	18.58
313.15 K	680	18.08
318.15 K	–	17.6
323.15 K	–	17.06

CCCCCCC [heptane] + OCc1ccccc1
[2], x1 = 1
Settings	surface tension liquid-gas [mN/m]
293.15 K	20.05
298.15 K	19.54
303.15 K	19.1
308.15 K	18.58
313.15 K	18.08
318.15 K	17.6
323.15 K	17.06

CCCCCC [hexane]
[1]
Settings	mass density [kg/m3]	surface tension liquid-gas [mN/m]
293.15 K	660.2	18.56
298.15 K	655.4	18.03
303.15 K	–	17.44
308.15 K	–	16.92
313.15 K	641.4	16.38

CCCCCC [hexane] + OCc1ccccc1
[2], x1 = 1
Settings	surface tension liquid-gas [mN/m]
293.15 K	18.56
298.15 K	18.03
303.15 K	17.44
308.15 K	16.92
313.15 K	16.38

CCCCCCCCC [nonane]
[1]
Settings	mass density [kg/m3]	surface tension liquid-gas [mN/m]
293.15 K	717.7	23.04
298.15 K	713.9	22.49
303.15 K	–	22.04
308.15 K	–	21.49
313.15 K	694.2	20.94
318.15 K	–	20.47
323.15 K	–	19.98

CCCCCCCCC [nonane] + OCc1ccccc1
[2], x1 = 1
Settings	surface tension liquid-gas [mN/m]
293.15 K	23.04
298.15 K	22.49
303.15 K	22.04
308.15 K	21.49
313.15 K	20.94
318.15 K	20.47
323.15 K	19.98
